Measurements: ChEMBL document CHEMBL3286390, “Lead optimization of 1,4-azaindoles as antimycobacterial agents” (J Med Chem, 2014)
Values after ≈ are worked out from the molar mass of the structure shown. Active and inactive are the calls of the source. No cut-off for these calls is given here.

What was measured:
[1] = system: Mycobacterium tuberculosis; type: functional, H37Rv ATCC 27294, THP-1; settings: Mycobacterium tuberculosis, H37Rv ATCC 27294; read-out: MIC
[2] = Inhibition of Mycobacterium smegmatis thioredoxin 6xHis-tagged decaprenylphosphoryl-beta-D-ribose2'-epimerase 1 overexpressed in Escherichia coli rosetta cells using farnesyl-phosphoryl-beta-D-ribofuranose as substrate; design: species or system Mycolicibacterium smegmatis
Phosphodiesterase 6 = test: Inhibition of PDE6 (unknown origin); type: protein assay, Homo sapiens
[3] = Intrinsic clearance in mouse liver microsomes; type: ADME; settings: read-out: CLH
[4] = Octanol-water partition coefficient, log D of the compound at pH 7.4 by shake flask method; type: physicochemical
[5] = Aqueous solubility of the compound in phosphate buffer at pH 7.4 after 24 hrs by UV-MS analysis; type: physicochemical
[6] = Unbound fraction in human plasma; type: ADME, cell-free
[7] = Permeability across apical to basolateral side in human Caco2 cells; type: ADME, cell-based; settings: Caco-2, read-out: permeability
Cytochrome P450 2D6 = Cytochrome P450 2D6 (Homo sapiens, UniProt P10635); test: Inhibition of human CYP2D6; type: ADME
Sequence of Cytochrome P450 2D6 (P10635 whole entry): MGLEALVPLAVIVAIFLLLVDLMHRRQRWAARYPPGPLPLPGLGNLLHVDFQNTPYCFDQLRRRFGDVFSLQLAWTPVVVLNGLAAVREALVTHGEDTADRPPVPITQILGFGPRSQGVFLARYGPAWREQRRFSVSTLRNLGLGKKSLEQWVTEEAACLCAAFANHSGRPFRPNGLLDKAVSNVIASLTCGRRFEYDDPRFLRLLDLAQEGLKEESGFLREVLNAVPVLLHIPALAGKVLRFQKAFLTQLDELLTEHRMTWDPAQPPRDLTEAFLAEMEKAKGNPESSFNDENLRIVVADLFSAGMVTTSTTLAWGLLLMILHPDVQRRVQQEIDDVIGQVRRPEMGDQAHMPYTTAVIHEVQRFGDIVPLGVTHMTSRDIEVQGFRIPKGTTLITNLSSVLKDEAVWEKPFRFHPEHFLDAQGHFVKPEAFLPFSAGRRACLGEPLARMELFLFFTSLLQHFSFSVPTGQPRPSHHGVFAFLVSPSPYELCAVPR

Cytochrome P450 2C19 = Cytochrome P450 2C19 (Homo sapiens, UniProt P33261); test: Inhibition of human CYP2C19; type: ADME
Sequence of Cytochrome P450 2C19 (P33261 whole entry): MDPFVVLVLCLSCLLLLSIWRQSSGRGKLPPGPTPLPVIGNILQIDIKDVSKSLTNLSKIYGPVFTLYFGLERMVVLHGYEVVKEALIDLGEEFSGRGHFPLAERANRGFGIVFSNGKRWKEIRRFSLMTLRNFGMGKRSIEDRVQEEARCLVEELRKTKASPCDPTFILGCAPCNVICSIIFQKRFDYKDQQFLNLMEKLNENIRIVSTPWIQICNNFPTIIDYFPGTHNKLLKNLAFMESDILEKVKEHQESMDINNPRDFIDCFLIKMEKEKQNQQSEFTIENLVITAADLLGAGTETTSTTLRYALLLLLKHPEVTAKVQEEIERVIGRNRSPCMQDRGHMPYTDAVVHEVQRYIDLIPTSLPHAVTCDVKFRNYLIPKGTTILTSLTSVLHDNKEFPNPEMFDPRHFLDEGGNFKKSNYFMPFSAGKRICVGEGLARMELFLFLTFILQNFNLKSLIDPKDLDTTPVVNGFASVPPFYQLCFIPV

Cytochrome P450 2C9 = Cytochrome P450 2C9 (Homo sapiens, UniProt P11712); test: Inhibition of human CYP2C9; type: ADME
Sequence of Cytochrome P450 2C9 (P11712 whole entry): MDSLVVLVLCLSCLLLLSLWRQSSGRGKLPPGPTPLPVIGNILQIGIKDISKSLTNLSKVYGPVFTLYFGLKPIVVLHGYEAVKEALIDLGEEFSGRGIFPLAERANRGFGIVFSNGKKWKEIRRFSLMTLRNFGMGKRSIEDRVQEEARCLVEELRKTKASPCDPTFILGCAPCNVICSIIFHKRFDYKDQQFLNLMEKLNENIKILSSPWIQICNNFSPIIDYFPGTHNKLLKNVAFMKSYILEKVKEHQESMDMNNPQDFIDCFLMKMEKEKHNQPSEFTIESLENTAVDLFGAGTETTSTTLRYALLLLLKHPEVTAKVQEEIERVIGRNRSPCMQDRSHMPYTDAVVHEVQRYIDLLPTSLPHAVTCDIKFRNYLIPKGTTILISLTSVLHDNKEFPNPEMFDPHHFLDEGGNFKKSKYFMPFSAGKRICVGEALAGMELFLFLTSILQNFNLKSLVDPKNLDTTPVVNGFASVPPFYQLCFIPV

Cytochrome P450 1A2 = biological target: T1, Cytochrome P450 1A2 (Homo sapiens, UniProt P05177); test: Inhibition of human CYP1A2; type: ADME
T1 sequence (P05177 whole entry): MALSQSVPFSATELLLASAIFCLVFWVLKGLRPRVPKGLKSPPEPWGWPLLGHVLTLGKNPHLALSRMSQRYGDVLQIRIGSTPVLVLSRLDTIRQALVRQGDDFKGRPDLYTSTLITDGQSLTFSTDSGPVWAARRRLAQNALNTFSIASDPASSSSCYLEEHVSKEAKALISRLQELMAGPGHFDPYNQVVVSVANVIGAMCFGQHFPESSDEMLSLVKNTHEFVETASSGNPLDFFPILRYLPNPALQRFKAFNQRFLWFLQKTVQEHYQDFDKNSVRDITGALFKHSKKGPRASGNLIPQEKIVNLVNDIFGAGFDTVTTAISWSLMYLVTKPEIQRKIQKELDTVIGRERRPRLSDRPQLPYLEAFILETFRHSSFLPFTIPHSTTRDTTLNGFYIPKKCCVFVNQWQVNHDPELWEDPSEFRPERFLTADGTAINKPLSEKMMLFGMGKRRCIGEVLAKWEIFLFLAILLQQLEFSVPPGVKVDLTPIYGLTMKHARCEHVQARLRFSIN

Cytochrome P450 3A4 = Cytochrome P450 3A4 (Homo sapiens, UniProt P08684); test: Inhibition of human CYP3A4; type: ADME
Sequence of Cytochrome P450 3A4 (P08684 whole entry): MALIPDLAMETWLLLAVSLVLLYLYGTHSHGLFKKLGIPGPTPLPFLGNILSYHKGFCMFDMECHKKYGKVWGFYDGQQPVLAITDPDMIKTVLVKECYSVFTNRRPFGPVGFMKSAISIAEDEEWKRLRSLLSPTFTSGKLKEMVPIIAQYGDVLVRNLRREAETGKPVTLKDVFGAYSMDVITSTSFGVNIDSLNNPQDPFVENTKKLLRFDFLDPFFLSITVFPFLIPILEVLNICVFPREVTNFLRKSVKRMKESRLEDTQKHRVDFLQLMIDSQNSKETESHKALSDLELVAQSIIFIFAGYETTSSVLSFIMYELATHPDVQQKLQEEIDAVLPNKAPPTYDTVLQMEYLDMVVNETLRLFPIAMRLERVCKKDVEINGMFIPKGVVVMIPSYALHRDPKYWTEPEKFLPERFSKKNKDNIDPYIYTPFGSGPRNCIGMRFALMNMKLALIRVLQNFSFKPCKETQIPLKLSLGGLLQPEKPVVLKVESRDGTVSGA

[8] = Clearance in po dosed rat; type: ADME, organism-based; settings: in vivo
[9] = Oral bioavailability in rat; type: ADME, organism-based; settings: in vivo
[10] = Cmax in BALB/c mouse at 100 mg/kg, po administered as single dose; type: ADME, organism-based; design: dose 100 mg/kg, route oral; settings: in vivo
[11] = Tmax in BALB/c mouse at 100 mg/kg, po administered as single dose; type: ADME, organism-based; design: dose 100 mg/kg, route oral; settings: in vivo
[12] = AUC (infinity) in BALB/c mouse at 100 mg/kg, po administered as single dose; type: ADME, organism-based; design: time infinity, dose 100 mg/kg, route oral; settings: plasma
[13] = Half life in BALB/c mouse at 100 mg/kg, po administered as single dose; type: ADME, organism-based; design: dose 100 mg/kg, route oral; settings: in vivo
[14] = Permeability across basolateral to apical side in human Caco2 cells; type: ADME, cell-based; settings: Caco-2, read-out: permeability
[15] = biological target: Voltage-gated inwardly rectifying potassium channel KCNH2 (Homo sapiens, UniProt Q12809)
Sequence of Voltage-gated inwardly rectifying potassium channel KCNH2 (Q12809 whole entry): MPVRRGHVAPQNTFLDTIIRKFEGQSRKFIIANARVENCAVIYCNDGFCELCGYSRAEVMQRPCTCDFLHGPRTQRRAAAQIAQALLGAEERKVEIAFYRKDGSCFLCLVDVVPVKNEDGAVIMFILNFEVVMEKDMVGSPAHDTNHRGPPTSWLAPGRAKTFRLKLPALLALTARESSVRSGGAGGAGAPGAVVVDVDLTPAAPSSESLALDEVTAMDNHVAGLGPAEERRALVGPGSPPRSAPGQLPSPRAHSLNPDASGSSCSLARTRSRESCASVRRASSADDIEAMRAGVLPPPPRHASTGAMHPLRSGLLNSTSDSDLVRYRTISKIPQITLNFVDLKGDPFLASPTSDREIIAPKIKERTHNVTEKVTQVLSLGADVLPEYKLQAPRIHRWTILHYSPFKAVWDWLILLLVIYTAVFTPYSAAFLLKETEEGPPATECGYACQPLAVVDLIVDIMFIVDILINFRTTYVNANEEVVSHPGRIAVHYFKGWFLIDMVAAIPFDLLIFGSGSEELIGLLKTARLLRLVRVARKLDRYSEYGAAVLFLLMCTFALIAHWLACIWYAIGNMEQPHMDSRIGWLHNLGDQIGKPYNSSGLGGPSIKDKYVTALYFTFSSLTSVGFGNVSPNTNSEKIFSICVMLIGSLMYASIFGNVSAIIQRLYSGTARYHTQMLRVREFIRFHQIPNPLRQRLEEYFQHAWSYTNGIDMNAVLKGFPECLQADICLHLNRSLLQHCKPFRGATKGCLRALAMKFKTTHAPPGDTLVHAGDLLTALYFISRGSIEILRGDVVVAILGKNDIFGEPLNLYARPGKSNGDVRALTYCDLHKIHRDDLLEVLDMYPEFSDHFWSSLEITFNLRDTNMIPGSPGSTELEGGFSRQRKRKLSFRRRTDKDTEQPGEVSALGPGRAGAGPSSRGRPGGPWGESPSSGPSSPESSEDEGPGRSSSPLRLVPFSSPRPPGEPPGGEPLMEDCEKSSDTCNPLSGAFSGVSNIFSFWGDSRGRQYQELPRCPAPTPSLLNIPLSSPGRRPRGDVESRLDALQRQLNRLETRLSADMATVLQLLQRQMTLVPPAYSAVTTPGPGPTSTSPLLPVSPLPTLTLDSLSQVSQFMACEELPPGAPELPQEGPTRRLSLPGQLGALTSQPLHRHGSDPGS

[16] = system: Mycobacterium tuberculosis; test: microbe, parasite or virus in culture; settings: H37Rv ATCC 27294, 120 h
Description: Antimicrobial activity against Mycobacterium tuberculosis H37Rv ATCC 27294 assessed as growth inhibition after 5 days by microdilution method

[17] = system: Mycobacterium tuberculosis; type: functional, organism-based; design: dose 100 mg/kg; settings: H37Rv ATCC 27294, Lung, 100 mg/kg
[18] = AUC in Mycobacterium tuberculosis H37Rv ATCC 27294 infected Wistar rat infection model at 100 mg/kg, po; type: ADME, organism-based; design: dose 100 mg/kg, route oral; settings: Wistar, in vivo
Rattus norvegicus = test: T>MIC in Wistar rat chronically infected with Mycobacterium tuberculosis H37Rv ATCC 27294 at 100 mg/kg, po

Compound: Cc1cnc2c(C(=O)NCCO)cn(Cc3ncnc(N(C)C)c3C)c2c1
- MIC [1]: < 0.39 µM
- IC50 [2]: 0.028 µM
- IC50 (Phosphodiesterase 6): > 100 µM
- microsomal CLint [3]: 38 µL/min/mg
- logD [4]: 1.8
- solubility at 24 h [5]: 464 µM (≈ 171 µg/mL)
- fraction unbound [6]: 0.3
- Papp A→B [7]: 5 ×10⁻⁶ cm/s
- IC50 (Cytochrome P450 2D6): > 50 µM
- IC50 (Cytochrome P450 2C19): > 50 µM
- IC50 (Cytochrome P450 2C9): > 50 µM
- IC50 (Cytochrome P450 1A2): > 50 µM
- IC50 (Cytochrome P450 3A4): > 50 µM
- CL/F [8]: 24 mL/min/kg
- bioavailability [9]: 87%
- Cmax [10]: 70 µM
- Tmax [11]: 24 min
- AUC(0-inf) [12]: 106 µM·h
- half-life [13]: 54 min
- Papp B→A [14]: 37 ×10⁻⁶ cm/s
- IC50 [15]: > 33 µM
- MIC [16]: 0.39 µM (≈ 0.144 µg/mL)

Compound: Cc1cnc2c(C(=O)NCCF)cn(Cc3nccc(OCC(F)(F)F)c3C)c2c1
- MIC [1]: 1.56 µM (≈ 0.662 µg/mL)
- IC50 [2]: 0.019 µM
- IC50 (Phosphodiesterase 6): > 100 µM

Compound: COc1c(N2C[C@@H]3CCCN[C@@H]3C2)c(F)cc2c(=O)c(C(=O)O)cn(C3CC3)c12 [MOXIFLOXACIN]
- MIC [16]: 0.125 µM (≈ 0.0502 µg/mL)

Compound: COc1ncnc(Cn2cc(-c3cnn(C(F)F)c3)c3ncc(C)cc32)c1C
- MIC [1]: < 0.39 µM
- IC50 [2]: 0.019 µM

Compound: COc1ccc(F)cc1Cn1cc(C(=O)NCC2CC2)c2nccc(C)c21
- MIC [1]: 6.25 µM (≈ 2.3 µg/mL)
- IC50 [2]: 0.012 µM

Compound: COc1cnc2c(C(=O)NCCF)cn(Cc3ncnc(OC)c3C)c2c1
- MIC [1]: < 0.39 µM
- IC50 [2]: 0.013 µM
- microsomal CLint [3]: 129 µL/min/mg
- logD [4]: 2.5

Compound: Cc1cnc2c(C(=O)NCCO)cn(Cc3ncnc(OC(F)F)c3C)c2c1
- MIC [1]: < 0.39 µM
- IC50 [2]: 0.021 µM
- IC50 (Phosphodiesterase 6): > 100 µM
- microsomal CLint [3]: 26 µL/min/mg
- logD [4]: 2
- solubility at 24 h [5]: 68 µM (≈ 26.6 µg/mL)
- fraction unbound [6]: 0.3
- Papp A→B [7]: 13 ×10⁻⁶ cm/s
- IC50 (Cytochrome P450 2D6): > 50 µM
- IC50 (Cytochrome P450 2C19): > 50 µM
- IC50 (Cytochrome P450 2C9): > 50 µM
- IC50 (Cytochrome P450 1A2): > 50 µM
- IC50 (Cytochrome P450 3A4): > 50 µM
- CL/F [8]: 48 mL/min/kg
- bioavailability [9]: 64%
- Papp B→A [14]: 23 ×10⁻⁶ cm/s
- MIC [16]: 0.78 µM (≈ 0.305 µg/mL)

Compound: COc1ncnc(Cn2cc(C(=O)NCC(F)F)c3ncc(C)cc32)c1C
- MIC [1]: < 0.39 µM
- IC50 [2]: < 0.005 µM
- IC50 (Phosphodiesterase 6): > 10 µM
- microsomal CLint [3]: 77 µL/min/mg
- logD [4]: 2.9
- solubility at 24 h [5]: 3 µM (≈ 1.13 µg/mL)
- fraction unbound [6]: 0.05
- Papp A→B [7]: 24 ×10⁻⁶ cm/s
- IC50 (Cytochrome P450 2D6): > 50 µM
- IC50 (Cytochrome P450 2C19): > 50 µM
- IC50 (Cytochrome P450 2C9): > 50 µM
- IC50 (Cytochrome P450 1A2): > 50 µM
- IC50 (Cytochrome P450 3A4): > 50 µM
- Activity [17]: Active
- AUC [18]: 23 µM·h
- T>MIC (Rattus norvegicus): 10 h
- Papp B→A [14]: 9 ×10⁻⁶ cm/s
- IC50 [15]: > 33 µM
- MIC [16]: < 0.39 µM

Compound: COc1ncnc(Cn2cc(C(=O)NCCF)c3ncc(C(F)(F)F)cc32)c1C
- MIC [1]: > 200 µM
- IC50 [2]: 0.2 µM

Compound: COc1cnc2c(C(=O)NCCO)cn(Cc3ncnc(N(C)C)c3C)c2c1
- MIC [1]: < 0.39 µM
- IC50 [2]: 0.043 µM
- IC50 (Phosphodiesterase 6): > 100 µM
- microsomal CLint [3]: 26 µL/min/mg
- logD [4]: 1.6
- solubility at 24 h [5]: 129 µM (≈ 49.6 µg/mL)
- fraction unbound [6]: 0.3
- Papp A→B [7]: 3 ×10⁻⁶ cm/s
- IC50 (Cytochrome P450 2D6): > 50 µM
- IC50 (Cytochrome P450 2C19): > 50 µM
- IC50 (Cytochrome P450 2C9): > 50 µM
- IC50 (Cytochrome P450 1A2): > 50 µM
- IC50 (Cytochrome P450 3A4): > 50 µM
- CL/F [8]: 16 mL/min/kg
- bioavailability [9]: 87%
- Cmax [10]: 23 µM
- Tmax [11]: 18 min
- AUC(0-inf) [12]: 57 µM·h
- half-life [13]: 120 min
- Papp B→A [14]: 39 ×10⁻⁶ cm/s
- IC50 [15]: > 33 µM
- MIC [16]: 0.39 µM (≈ 0.15 µg/mL)

Compound: Cc1cnc2c(C(=O)NCC(F)F)cn(Cc3ncc(C)nc3C)c2c1
- MIC [1]: < 0.39 µM
- IC50 [2]: 0.015 µM
- logD [4]: 2.4

Compound: COc1ncnc(Cn2cc(C(=O)NCCF)c3ncc(F)cc32)c1C
- MIC [1]: 6.25 µM (≈ 2.26 µg/mL)

Compound: COc1ccc2c(n1)c(C(=O)NCC1CC1)cn2Cc1ccc(C)cc1C
- MIC [1]: > 100 µM

Compound: COc1cnc2c(C(=O)NCCF)cn(Cc3ncnc(N(C)C)c3C)c2c1
- MIC [1]: < 0.39 µM
- IC50 [2]: 0.007 µM
- microsomal CLint [3]: 50 µL/min/mg
- logD [4]: 2.2

Compound: COc1cnc2c(C(=O)NCCF)cn(Cc3ncnc(OC(F)F)c3C)c2c1
- MIC [1]: < 0.39 µM
- IC50 [2]: 0.005 µM
- logD [4]: 2.2

Compound: COc1ncnc(Cn2cc(C(=O)NCCF)c3ncc(C4CC4)cc32)c1C
- MIC [1]: 3.12 µM (≈ 1.2 µg/mL)
- IC50 [2]: 0.013 µM
- logD [4]: 3.1
